Assay results reported in the NIST ThermoML archive (doi:10.1021/je0502647).
± gives the expanded uncertainty stated by the source.

Test: activity coefficient (dimensionless); of the first substance listed, at infinite dilution; xn = mol fraction of the nth substance listed
Conditions: Liquid, gas stripping method, x1 = 0

Row | Compound | activity coefficient (249.94 K) | activity coefficient (270.06 K) | activity coefficient (289.99 K) | activity coefficient (309.98 K) | activity coefficient (329.99 K) | activity coefficient (270.01 K) | activity coefficient (310 K) | activity coefficient (250 K) | activity coefficient (270 K) | activity coefficient (249.98 K)
1 | CCCl [chloroethane] + C=CCO | 3.09 ± 0.09 | 3.07 ± 0.09 | 2.99 ± 0.09 | 2.87 ± 0.09 | 2.69 ± 0.08 |  |  |  |  | 
2 | COC [dimethyl ether] + C=CCO | 1.23 ± 0.04 | 1.22 ± 0.04 | 1.2 ± 0.04 | 1.2 ± 0.04 | 1.16 ± 0.04 |  |  |  |  | 
3 | C=CCC [1-butene] + C=CCO | 6.08 ± 0.18 |  | 5.62 ± 0.17 |  | 5.04 ± 0.15 | 5.85 ± 0.18 | 5.35 ± 0.16 |  |  | 
4 | C/C=C/C [(E)-2-butene] + C=CCO |  |  | 5.67 ± 0.17 |  | 4.91 ± 0.15 |  | 5.38 ± 0.16 | 6.23 ± 0.19 | 5.85 ± 0.18 | 
5 | CC(F)F [1,1-difluoroethane] + C=CCO | 5.09 ± 0.15 | 4.94 ± 0.15 | 4.68 ± 0.14 | 4.39 ± 0.13 | 4.02 ± 0.12 |  |  |  |  | 
6 | C/C=C\C [(Z)-2-butene] + C=CCO | 5.53 ± 0.17 | 5.28 ± 0.16 | 5.06 ± 0.15 | 4.85 ± 0.15 | 4.57 ± 0.14 |  |  |  |  | 
7 | CC(C)C [2-methylpropane] + C=CCO | 10.5 ± 0.3 |  | 8.83 ± 0.26 |  | 7.14 ± 0.21 | 9.51 ± 0.29 | 8.11 ± 0.24 |  |  | 
8 | CCCC [butane] + C=CCO |  |  | 8.2 ± 0.25 |  | 6.79 ± 0.2 | 8.84 ± 0.27 | 7.58 ± 0.23 |  |  | 9.71 ± 0.29
9 | C=CC=C [1,3-butadiene] + C=CCO |  |  | 4.02 ± 0.12 |  | 3.59 ± 0.11 | 4.06 ± 0.12 | 3.89 ± 0.12 | 4.12 ± 0.12 |  | 
